Data set [1] deals with PANC1 EGFR-overexpressing cells. The following applies: Mol Cancer Ther 2006; 5:2051-2059; cited from earlier work.
Data set [2] has as its target Grp94 (Canis lupus familiaris, UniProt P41148). The following applies: read-out: Grp94; FP competition, 6 nM Cy3B-GM, 10 nM protein, 4° C. for 24 h.
Data set [3] relates to 97 kinases. Nature of the data set: Kinase screen (Discoverx scanEDGE / KINOMEscan). The note with it: tested at 10 uM. It counts as binding.
Data set [4] concerns the target Hsp90β (Homo sapiens, UniProt P08238).
Data set [5] has as its target T1, Hsp90α (Homo sapiens, UniProt P07900). The data set can be described thus: biochemical.
Data set [6] has as its target T2, Trap-1 (Homo sapiens, UniProt Q12931).
T2 sequence (Q12931 60-704): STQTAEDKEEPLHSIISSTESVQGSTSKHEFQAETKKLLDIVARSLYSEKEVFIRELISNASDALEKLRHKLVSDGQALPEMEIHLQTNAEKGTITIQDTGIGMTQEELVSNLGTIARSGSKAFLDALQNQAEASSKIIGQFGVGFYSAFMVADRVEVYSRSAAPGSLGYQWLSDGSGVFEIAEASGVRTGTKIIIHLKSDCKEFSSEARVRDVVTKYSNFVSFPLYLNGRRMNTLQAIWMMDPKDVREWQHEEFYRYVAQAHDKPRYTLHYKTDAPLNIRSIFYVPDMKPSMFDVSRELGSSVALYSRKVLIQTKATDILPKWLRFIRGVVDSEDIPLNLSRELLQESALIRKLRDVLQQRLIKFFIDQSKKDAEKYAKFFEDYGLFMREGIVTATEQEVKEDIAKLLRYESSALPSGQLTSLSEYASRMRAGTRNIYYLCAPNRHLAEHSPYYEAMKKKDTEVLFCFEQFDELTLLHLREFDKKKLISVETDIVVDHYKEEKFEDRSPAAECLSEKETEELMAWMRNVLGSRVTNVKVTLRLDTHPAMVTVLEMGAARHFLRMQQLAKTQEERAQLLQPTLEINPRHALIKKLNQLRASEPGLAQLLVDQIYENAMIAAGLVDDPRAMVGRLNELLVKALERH
The following applies: read-out: TRAP-1.

For data set [7], the system named is C2C12 cells. The data set can be described thus: Viability of C2C12 cells visualized by light microscopy. Format: cell-based, mouse. The following applies: 24 h.
The subject of data set [8] is TLR9 ligand CpG DNA induced TNF-α production in RAW 264.7 macrophages. The data set can be described thus: TNFα ELISA, CpG DNA stimulated macrophages. It counts as cell-based, mouse.
For data set [9], the system named is Human Umbilical Vein Endothelial Cells (HUVECs). Nature of the data set: Angiogenesis studies with HUVEC cells. It counts as cell-based.
For data set [10], the target named is T1, Hsp90α.
The subject of data set [11] is PANC-1 cells. The data set can be described thus: Apoptosis assessment (Annexin V / 7AAD). It counts as cell-based. The text has this: Annexin V Apoptosis with 7-AAD has been specifically designed for the identification of apoptotic and necrotic cells. Annexin V (or Annexin A5) is a member of the annexin family of intracellular proteins that binds to phosphatidylserine (PS) in a calcium-dependent manner. PS is normally only found on the intracellular leaflet of the plasma membrane in healthy cells, but during early apoptosis, membrane asymmetry is lost and PS translocates to the external leaflet. Fluorochrome-labeled Annexin V can then be used to specifically target and identify apoptotic cells. Annexin V binding alone cannot differentiate between apoptotic and necrotic cells. To help distinguish between the necrotic and apoptotic cells 7-amino-actinomycin D (7-AAD) is used. Early apoptotic cells will exclude 7-AAD, while late stage apoptotic cells will stain positively, due to the passage of these dyes into the nucleus where they bind to DNA. 7-AAD (7-amino-actinomycin D) has a high DNA binding constant and is efficiently excluded by intact cells. It is useful for DNA analysis and dead cell discrimination during flow cytometric analysis. When excited by 488 laser light, 7-AAD fluorescence is detected in the far red range of the spectrum (650 nm long-pass filter).
Cell cycle and apoptosis assessment. Cell cycle and apoptosis were assessed by flow cytometry after single staining with propidium iodide (PI, BD Pharmingen) or double staining with AnnexinV-FITC (BD Pharmingen) and 7AAD (BD Pharmingen), respectively. Specifically, for cell cycle analysis, cells were washed twice with cold PBS and fixed in 70% ethanol overnight at 4° C. Fixed cells were collected at 1800 rpm for 10 min and stained with PBS containing PI and DNase-free RNase A (Sigma-Aldrich) for 1 h at room temperature in the dark. DNA content was measured by BD LSRII flow cytometer and cell further analyzed using program of cell cycle analysis in FloJo (Ashland, OR). The chicken erythrocyte nuclei singlets (CEN, Biosure) were used as the reference. For apoptosis assessment, live cells were collected, washed twice with cold PBS, resuspended in Binding Buffer and stained with AnnexinV-FITC and 7AAD for 15 min at room temperature in the dark. Signals from FL1 and FL3 channels were collected by MACSQuant analyzer and further analyzed using FloJo. Early apoptosis was defined as AnnexinV+/7AAD−, and late apoptosis was observed as AnnexinV+/7AAD+.

Data set [12] concerns Toll-like receptor 9 (TLR9) trafficking in HEK293 cells transfected with HA-TLR9. The data set can be described thus: TLR9-trafficking assay. Format: cell-based, human. The note with it: 24 h treatment. The protocol:
TLR^9-trafficking assay (Yang, Y. et al. Heat shock protein gp96 is a master chaperone for toll-like receptors and is important in the innate function of macrophages. Immunity 26, 215-26 (2007)). HEK 293T cells were transfected with pUNO-hTLR9-HA (Invivogen) using X-tremgene HP (Roche) according to the manufacturer's instructions. At 24 hrs post-transfection, cells were split onto cell culture chamber slides (Lab-Tek). Cells were then treated for 24 hrs with indicated compound at varying concentrations. After treatment, cells were fixed for 20 min in 4% paraformaldehyde in PBS, permeabilized with 0.1% Triton-X 100 in PBS for 10 min, blocked with 3% BSA in PBS for 30 min, followed by staining for 1 hr with an anti-HA antibody (Abcam, ab9110) or a normal rabbit IgG. Cells were washed with PBS, stained with an anti-rabbit-Cy3 antibody (Invitrogen) and finally mounted in the dark at 4° C. with Prolong Gold Antifade reagent (with DAPI). Cells were visualized under a confocal microscope (Leica Upright Confocal SP5). Fluorescence intensity was quantified using MetaMorph Microscopy Automation and Image Analysis Software (Molecular Devices Inc.) and normalized to the cell number.

Data set [13] deals with Hsp70 induction and AKT degradation (cytosolic Hsp90 hallmarks) in C2C12 cells. Nature of the data set: Western blot of Hsp70 induction and AKT degradation in C2C12 cells. It counts as cell-based, mouse. The note with it: 24 hrs. Background: Immunoblotting shows a protein as a band on a membrane.
Description: Cell fractionation and immunoblotting. Cells were either treated with DMSO (vehicle) or indicated compounds for 24 hr and lysed in RIPA buffer (50 mM Tris-HCl, pH 7.4, 150 mM NaCl, 0.5% sodium deoxycholate and 0.5% NP40) supplemented with cocktail protease inhibitors (Roche) to produce whole cell lysates. Lysates for cytosol and membrane fractions were harvested using ProteoExtract Subcellular Proteome Extraction Kit (Calbiochem) following the manufacturer's instructions. Protein concentrations were determined using BCA kit (Pierce) according to the manufacturer's instructions. […] After washing off the excess antibodies, the membranes were incubated with the corresponding horseradish peroxidase (HRP) conjugated secondary antibody. Blots were visualized by autoradiography using the Enhanced Chemiluminescence Detection System (GE Healthcare) according to manufacturer's instructions. For all gels 3-actin was used as a protein loading control.
In data set [14] the test system is IGF-II secretion by differentiated C2C12 cells. The data set can be described thus: C2C12 differentiation and IGF-II secretion assay. It counts as cell-based, mouse. The following applies: 24 hrs treatment. The text has this: C2C12 differentiation and IGF-II secretion assay (Wanderling, S. et al. GRP94 is essential for mesoderm induction and muscle development because it regulates insulin-like growth factor secretion. Mol. Biol. Cell 18, 3764-75 (2007); Ostrovsky, O., Ahmed, N.T. & Argon, Y. The chaperone activity of GRP94 toward insulin-like growth factor II is necessary for the stress response to serum deprivation. Mol. Biol. Cell 20, 1855-64 (2009)). C2C12 cells were maintained and cultured in DMEM in the presence of 10% FBS and 1% penicillin/streptomycin (Culture medium). C2C12 is an immortal line of mouse skeletal myoblasts originally derived from satellite cells from the thigh muscle of a two month old female mouse donor. These cells differentiate well into myocytes under appropriate culture conditions. […] Secreted IGF-II was quantified by using IGF-II mouse ELISA kit (Abcam, AB100696) according to the manufacturer's instructions. […] The bound IGF-II was detected with a biotinylated anti-IGF-II antibody. After the sequential incubation with HRP conjugated streptavidin, TMB One-step substrate reagent and the Stop solution, the absorbance was measured at 450 nm. The secreted IGF-II was quantified against a standard curve generated with recombinant IGF-II provided by the kit.

Data set [15] deals with HER2 at the plasma membrane of SKBr3 cells. Nature of the data set: Immunofluorescence of HER2 architecture at the plasma membrane. It counts as cell-based. The method, then: We next investigated the biological significance of the unique association of HER^2 with Grp94 at the plasma membrane of SKBr3 cells. Because the Grp94 inhibitors described here target the ATP-binding pocket of Grp94, they affect Grp94 chaperone activity. Therefore we hypothesized that Grp94 may act on HER^2 at the plasma membrane to stabilize the protein and to regulate its function.
Immunofluorescence. Cells were seeded and grown onto culture slides (BD Falcon) for 24 hrs. After washing with cold PBS, cells were fixed by treating at 4° C. for 20 min with 4% paraformaldehyde in PBS, permeabilized with 0.1% Triton X-100 in PBS containing 10% FBS for 10 min, and blocked with 2% BSA for 1 hr. After washing for four times with PBS, primary antibodies were added onto the chambers and cell were incubated overnight at 4° C., washed again with PBS followed by incubation with the secondary antibody for 1 hr at room temperature. Cell were washed and then mounted and observed under microscope (Leica Upright Confocal SP5). The primary antibodies used in the assay are against: HER^2 (Zymed, 28004), Grp94 (Stressgen, SPA-850), Hsp70 (Stressgen, SPA-810), LAMP1-FITC (Abcam, ab25406), EEA1 (Abcam, ab70521), 58K Golgi-FITC (Abcam, ab27043) and Calnexin (BD, 610523).

The subject of data set [16] is Hsp70 induction in HEK293 cells. Nature of the data set: Hsp70 induction in HA-TLR9 transfected HEK293 cells. Format: cell-based, human. The following applies: 24 h. The method, then: Cell fractionation and immunoblotting. Cells were either treated with DMSO (vehicle) or indicated compounds for 24 hr and lysed in RIPA buffer (50 mM Tris-HCl, pH 7.4, 150 mM NaCl, 0.5% sodium deoxycholate and 0.5% NP40) supplemented with cocktail protease inhibitors (Roche) to produce whole cell lysates. Lysates for cytosol and membrane fractions were harvested using ProteoExtract Subcellular Proteome Extraction Kit (Calbiochem) following the manufacturer's instructions. Protein concentrations were determined using BCA kit (Pierce) according to the manufacturer's instructions. The protein lysates ([…]) were electrophoretically resolved by SDS-PAGE, transferred onto nitrocellulose membranes and probed with the indicated primary antibodies against: HER^2 (Zymed, 28004), Hsp70 (Stressgen, SPA-810), Grp94 (Stressgen, SPA-850), Hsp90α (Abcam, Ab2928), Hsp90β (StressMarq, SMC-107B), Grp78 (Cell Signaling, 3183), Raf-1 (Santa Cruz, sc-133), phospho-Raf-1 (Cell Signaling, 9421), MEK1/2 (Cell Signaling, 8727), phospho-MEK1/2 (Cell Signaling, 9154), ERK1/2 (Cell Signaling, 4695), phospho-ERK1/2 (Cell Signaling, 4370), AKT (Cell Signaling, 9272), GM130 (Cell Signaling, 2296), Flotillin 2 (Cell Signaling, 3436), Histone H4 (Cell Signaling, 2592), Histone H1 (Santa Cruz, sc-8030), Caspase 3 (Cell Signaling, 9665), cleaved PARP (Promega, G7341), a-tubulin (Sigma, T5168) and 3-actin (Sigma, A1978). After washing off the excess antibodies, the membranes were incubated with the corresponding horseradish peroxidase (HRP) conjugated secondary antibody. Blots were visualized by autoradiography using the Enhanced Chemiluminescence Detection System (GE Healthcare) according to manufacturer's instructions. […]
TLR^9-trafficking assay (Yang, Y. et al. Heat shock protein gp96 is a master chaperone for toll-like receptors and is important in the innate function of macrophages. Immunity 26, 215-26 (2007)). […] Fluorescence intensity was quantified using MetaMorph Microscopy Automation and Image Analysis Software (Molecular Devices Inc.) and normalized to the cell number.

“Also recorded” adds a separate entry of the source. Where two headings read alike, the source gives them in different places. Bounds are passed on as bounds.

Sequence of Hsp90β (P08238 whole entry): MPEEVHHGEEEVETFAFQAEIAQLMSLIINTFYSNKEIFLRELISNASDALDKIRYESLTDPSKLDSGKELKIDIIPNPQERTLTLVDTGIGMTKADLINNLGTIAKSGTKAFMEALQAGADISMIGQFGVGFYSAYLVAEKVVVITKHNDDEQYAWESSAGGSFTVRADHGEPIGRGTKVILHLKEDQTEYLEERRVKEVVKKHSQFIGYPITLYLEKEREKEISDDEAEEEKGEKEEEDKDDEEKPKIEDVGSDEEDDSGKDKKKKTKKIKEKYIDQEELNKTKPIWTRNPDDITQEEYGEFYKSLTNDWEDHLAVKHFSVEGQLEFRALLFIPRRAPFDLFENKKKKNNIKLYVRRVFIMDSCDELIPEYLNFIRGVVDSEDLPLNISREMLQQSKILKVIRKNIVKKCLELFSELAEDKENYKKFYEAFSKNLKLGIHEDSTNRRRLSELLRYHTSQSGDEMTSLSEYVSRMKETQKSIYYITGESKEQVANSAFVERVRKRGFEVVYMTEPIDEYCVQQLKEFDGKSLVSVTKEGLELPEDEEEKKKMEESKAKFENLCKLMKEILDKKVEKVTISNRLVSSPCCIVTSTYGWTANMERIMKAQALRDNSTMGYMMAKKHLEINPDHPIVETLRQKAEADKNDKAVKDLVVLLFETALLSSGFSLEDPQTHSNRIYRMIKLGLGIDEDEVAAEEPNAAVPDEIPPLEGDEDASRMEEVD
Sequence of Grp94 (P41148 with tags, fused parts or gaps DELINS287-327GGGG): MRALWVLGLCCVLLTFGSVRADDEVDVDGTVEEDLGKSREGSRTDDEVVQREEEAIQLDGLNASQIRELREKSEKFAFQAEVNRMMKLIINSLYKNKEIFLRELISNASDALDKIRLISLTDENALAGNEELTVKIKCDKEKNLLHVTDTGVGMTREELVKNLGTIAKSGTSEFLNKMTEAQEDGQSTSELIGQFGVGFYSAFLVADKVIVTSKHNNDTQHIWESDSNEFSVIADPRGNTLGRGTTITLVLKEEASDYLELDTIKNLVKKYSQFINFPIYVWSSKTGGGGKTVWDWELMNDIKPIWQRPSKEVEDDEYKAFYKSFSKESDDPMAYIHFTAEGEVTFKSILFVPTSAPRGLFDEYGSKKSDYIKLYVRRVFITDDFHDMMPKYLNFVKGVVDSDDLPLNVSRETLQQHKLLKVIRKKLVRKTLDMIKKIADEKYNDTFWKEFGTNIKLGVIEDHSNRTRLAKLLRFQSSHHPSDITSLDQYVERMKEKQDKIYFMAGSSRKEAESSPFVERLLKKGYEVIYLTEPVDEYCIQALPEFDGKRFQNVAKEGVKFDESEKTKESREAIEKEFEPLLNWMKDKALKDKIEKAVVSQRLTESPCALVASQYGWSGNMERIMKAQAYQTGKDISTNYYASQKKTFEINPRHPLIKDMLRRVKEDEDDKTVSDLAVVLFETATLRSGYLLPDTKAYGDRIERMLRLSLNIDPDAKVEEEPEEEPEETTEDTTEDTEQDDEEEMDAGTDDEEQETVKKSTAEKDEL

Turning to `C#Cc1cccc(Nc2ncnc3cc(OCCOC)c(OCCOC)cc23)c1` [erlotinib], in [1], the “reported resistance of PANC1 cells” value is “resistant”.
For the compound `C#CCCCn1c(Sc2ccc(Cl)cc2Cl)nc2c(N)ncnc21` [PU-H39], the IC50 is 0.12 ± 0.04 µM in [2]; over 300 µM in data set [4]; over 300 µM in data set [5] (FP competition, 6 nM Cy3B-GM, 10 nM protein, 4° C. for 24 h); 145 ± 13.4 µM in [6]. In addition, the “effect on the tested 97 kinases” value in data set [3] is on record as “no significant effect”.
In the case of `COC1=C2C[C@@H](C)C[C@H](OC)[C@H](O)[C@@H](C)/C=C(\C)[C@H](OC(N)=O)[C@@H](OC)/C=C\C=C(/C)C(=O)NC(=CC1=O)C2=O` [GM, geldanamycin, reference compound], the “toxicity to C2C12 cells” value in [7] is listed as “cell killing”.
For `C#CCCCn1cnc(N)c2nc(Sc3ccc(C)cc3C)nc1-2` [PU-H54], the “CpG DNA induced TNF-α production” value in data set [8] was “inhibited this response in a concentration dependent manner; also recorded: inhibit”. Besides, the IC50 in data set [4] is over 250 µM; in data set [5], over 250 µM; in data set [6] it was 54.1 ± 4.6 µM. Further, the HUVEC cell proliferation entry in data set [9] is reported as “does not affect substantially the cell proliferation”. In addition, the “angiogenic-like transformation of HUVECs induced by Grp94 and by peak 2” value in [9] is recorded as “able to change the angiogenic-like transformation of HUVECs; also recorded: displays an anti-angiogenic effect; also recorded: inhibited”. Moreover, the “affinity for Hsp90” value in data set [10] was “low affinity”.
`COc1cc(Cc2nc3c(N)nc(F)nc3n2CCOC(C)C)cc(OC)c1OC` [PU-29F]: the induction of apoptosis entry in data set [11] was “very little effect”. Besides, in [12], the TLR9 trafficking entry is recorded as “minimally effecting; also recorded: fails to inhibit TLR^9 trafficking”. In addition, in data set [13], the AKT degradation result is listed as “degradation of AKT; also recorded: degrade AKT” and the Hsp70 induction result is recorded as “dose-dependent increase in Hsp90 levels; also recorded: induce Hsp70”. In data set [14], the IGF-II secretion entry was “minimally effecting”. Moreover, the “effect on HER2 architecture at the plasma membrane” value in [15] was “failed to disturb the membrane HER^2 architecture”. Further, the Hsp70 induction entry in [16] is “induces Hsp70”.
